Measured values as given in the supplement of paper PMC10307832.

Columns and labels:
Experiment in all cases: relative viability (nuclei count vs DMSO), 5 days (fraction); higher = more cells survive
[1] = compound: CN(C/C=C/C1=CC=C(C=C1)Cl)CC2=CC=CC=C2N(CCO)S(=O)(=O)C3=CC=C(C=C3)OC [KN-93] + CS(=O)(=O)N1CCN(Cc2cc3nc(-c4cccc5[nH]ncc45)nc(N4CCOCC4)c3s2)CC1 [Pictilisib] (partner 1 µM)
Outline: (§1)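 Medians of duplicate plates are given as relative viability. That measure is the nuclei count in treated wells divided by the count in vehicle wells. Counts were taken on 4× images of lung cancer cell lines in 1536-well plates, 5 days after pin-tool dosing the day after seeding with one drug alone or a fixed anchor-drug dose plus five library-drug doses (not always all listed) in √10 steps.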

[2] = compound: CN(C/C=C/C1=CC=C(C=C1)Cl)CC2=CC=CC=C2N(CCO)S(=O)(=O)C3=CC=C(C=C3)OC [KN-93] + CS(=O)(=O)CCNCc1ccc(-c2ccc3ncnc(Nc4ccc(OCc5cccc(F)c5)c(Cl)c4)c3c2)o1 [Lapatinib] (partner 2 µM)
Outline: as §1

[3] = compound: CN(C/C=C/C1=CC=C(C=C1)Cl)CC2=CC=CC=C2N(CCO)S(=O)(=O)C3=CC=C(C=C3)OC [KN-93] + COc1cc2c(Oc3ccc(NC(=O)C4(C(=O)Nc5ccc(F)cc5)CC4)cc3F)ccnc2cc1OCCCN1CCOCC1 [Foretinib] (partner 0.25 µM)
Outline: as §1

[4] = compound: CN(C/C=C/C1=CC=C(C=C1)Cl)CC2=CC=CC=C2N(CCO)S(=O)(=O)C3=CC=C(C=C3)OC [KN-93] + CC(C)C[C@H](NC(=O)[C@H](Cc1ccccc1)NC(=O)c1cnccn1)B(O)O [Bortezomib] (partner 0.002 µM)
Outline: as §1

[5] = compound: CN(C/C=C/C1=CC=C(C=C1)Cl)CC2=CC=CC=C2N(CCO)S(=O)(=O)C3=CC=C(C=C3)OC [KN-93] + C[C@]1(O)C[C@@H](c2nc(-c3ccc4ccc(-c5ccccc5)nc4c3)c3c(N)nccn32)C1 [Linsitinib] (partner 1 µM)
Outline: as §1

[6] = compound: CN(C/C=C/C1=CC=C(C=C1)Cl)CC2=CC=CC=C2N(CCO)S(=O)(=O)C3=CC=C(C=C3)OC [KN-93] + O=C(c1cc(Cc2n[nH]c(=O)c3ccccc23)ccc1F)N1CCN(C(=O)C2CC2)CC1 [Olaparib] (partner 8 µM)
Outline: as §1

[7] = compound: CN(C/C=C/C1=CC=C(C=C1)Cl)CC2=CC=CC=C2N(CCO)S(=O)(=O)C3=CC=C(C=C3)OC [KN-93] + CC1(C)CCC(c2ccc(Cl)cc2)=C(CN2CCN(c3ccc(C(=O)NS(=O)(=O)c4ccc(N[C@H](CCN5CCOCC5)CSc5ccccc5)c(S(=O)(=O)C(F)(F)F)c4)cc3)CC2)C1 [Navitoclax] (partner 0.5 µM)
Outline: as §1

[8] = compound: CN(C/C=C/C1=CC=C(C=C1)Cl)CC2=CC=CC=C2N(CCO)S(=O)(=O)C3=CC=C(C=C3)OC [KN-93] + Cc1nc(NC(=O)N2CCC[C@H]2C(N)=O)sc1-c1ccnc(C(C)(C)C(F)(F)F)c1 [Alpelisib] (partner 2 µM)
Outline: as §1

[9] = compound: CN(C/C=C/C1=CC=C(C=C1)Cl)CC2=CC=CC=C2N(CCO)S(=O)(=O)C3=CC=C(C=C3)OC [KN-93] + C[C@@H](Oc1cc(-c2cnn(C3CCNCC3)c2)cnc1N)c1c(Cl)ccc(F)c1Cl [Crizotinib] (partner 1 µM)
Outline: as §1

[10] = compound: CN(C/C=C/C1=CC=C(C=C1)Cl)CC2=CC=CC=C2N(CCO)S(=O)(=O)C3=CC=C(C=C3)OC [KN-93]
Outline: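 Lung cancer cell lines were seeded into 1536-well plates, kept overnight at 37 °C and pinned with five library-drug doses (not always all listed) spaced by √10. After 5 days, nuclei were Hoechst-stained, imaged at 4× and counted with MetaXpress. Viability is treated-well nuclei over vehicle-well nuclei, taken as a median across plates. Plates needed control CV below 25% and at least one doubling.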

Q: Which results are given for Calu-6?
A: relative viability ([1]; first compound 0.253 µM): 1.06; relative viability ([1]; first compound 2.53 µM): 1.09; relative viability ([1]; first compound 8 µM): 0.454; relative viability ([2]; first compound 0.08 µM): 0.932; relative viability ([2]; first compound 0.253 µM): 1.25; relative viability ([2]; first compound 2.53 µM): 1.37; relative viability ([2]; first compound 8 µM): 0.567; relative viability ([3]; first compound 0.08 µM): 0.861; relative viability ([3]; first compound 0.253 µM): 0.997; relative viability ([3]; first compound 2.53 µM): 0.882; relative viability ([3]; first compound 8 µM): 0.622; relative viability ([4]; first compound 0.08 µM): 1.1; relative viability ([4]; first compound 0.253 µM): 1.05; relative viability ([4]; first compound 2.53 µM): 1.13; relative viability ([4]; first compound 8 µM): 0.633; relative viability ([5]; first compound 0.08 µM): 0.784; relative viability ([5]; first compound 0.253 µM): 1; relative viability ([5]; first compound 2.53 µM): 1.16; relative viability ([5]; first compound 8 µM): 0.904; relative viability ([6]; first compound 0.08 µM): 0.503; relative viability ([6]; first compound 0.253 µM): 0.546; relative viability ([6]; first compound 2.53 µM): 0.699; relative viability ([6]; first compound 8 µM): 0.429; relative viability ([7]; first compound 0.08 µM): 0.805; relative viability ([7]; first compound 0.253 µM): 0.894; relative viability ([7]; first compound 2.53 µM): 0.951; relative viability ([7]; first compound 8 µM): 0.36; relative viability ([8]; first compound 0.08 µM): 1.09; relative viability ([8]; first compound 0.253 µM): 1.12; relative viability ([8]; first compound 2.53 µM): 0.981; relative viability ([8]; first compound 8 µM): 0.644; relative viability ([9]; first compound 0.08 µM): 0.638; relative viability ([9]; first compound 0.253 µM): 1.09; relative viability ([9]; first compound 2.53 µM): 0.786; relative viability ([9]; first compound 8 µM): 0.41; relative viability ([10]; 0.08 µM): 0.872; relative viability ([10]; 0.253 µM): 1.09; relative viability ([10]; 2.53 µM): 1.16; relative viability ([10]; 8 µM): 0.69
